Data set [1] concerns mice. Put plainly: Catalepsy (bar test). The class given is in vivo, mouse. On the procedure: Catalepsy is a state of immobility, and was measured by means of the bar test. The forepaws of the animal were placed on a bar (0.75 cm in diameter and 5 cm above the floor) and the latency until the mouse moved the forepaws off the bar was measured.
Data set [2] relates to mice. The experiment in a line: Open-field test (spontaneous activity). The class given is in vivo, mouse. An excerpt: The open-field apparatus consisted of a white Plexiglas box (40×40×30 cm) with 16 squares (10×10 cm) painted on the floor (12 outer and 4 inner). Each mouse was placed in the center of the apparatus to initiate a 15-min test session. The number of entrances to the inner squares, time (min) spent in the inner squares, and total distance moved within the field (cm) were monitored.

The subject of data set [3] is mice. The experiment in a line: Rotarod (forced activity). The class given is in vivo, mouse. On the procedure:
Forced activity (Rotarod) was analyzed using the Rotarod apparatus (Jones and Roberts 7650, Ugo Basile, Italy). Animals were placed on an accelerating rod, and time required for each mouse to fall from the rod was recorded. Out of three trails, the longest time taken for an animal to fall from the rod was recorded and used for analysis.
(The rotarod test checks motor coordination on a turning rod.)

In data set [4] the test system is MK-801 treated C57BL/6J mice. Put plainly: PPI in the MK-801 drug-induced model of schizophrenia. The class given is in vivo, mouse. As for the experimental part:
MK-801 (Sigma) was used at 0.1 mg/kg and administered 15 min prior to the PPI analysis.
(§1) Acoustic startle response testing was performed within startle chambers purchased from Med Associates, Inc. (Med Associates, St. Albans, Vt., USA), as described in Cardon et al., 2010. During a period of acclimation, a 65-decibel (dB) background noise was presented for 5-min, and continued throughout the test session. All sessions for testing of acoustic startle response consisted of startle trials (pulse alone, 40-milliseconds (ms), 120-dB), prepulse trials (prepulse 20-ms, 69, 73, 78, or 81 dB followed by a [100-ms delay] pulse), and no-stimulus trials. All sessions were presented in pseudo-random order. The average time between trials was 15 seconds (range 12-30 seconds). Startle response was calculated from the reaction to the first pulse-alone trial.
(§2) PPI was calculated as: % PPI=100−{[(startle response for prepulse+pulse)/(startle response for pulse-alone)]×100}. Reduced PPI indicates schizophrenia-related behavior.
MK-801 (an antagonist of the N-methyl-D-aspartate (NMDA) receptor channel) acts as a psychomimetic agent, inducing psychotic symptoms that mimic the cognitive impairment and behavioral abnormalities associated with schizophrenia.
The neurotransmitter imbalance induced by MK-801 causes PPI dysfunction, one of the characteristic features of patients with schizophrenia. In an experiment depicted in FIG. 2, C57BL/6J mice were injected with Kp-10 (13 μg/mouse, light gray bars), or with Peptides 6 (8.75 μg/mouse, medium gray bars) or 8 (8.75 μg/mouse, dark gray bars) dissolved in DMSO and then diluted in PBS to a final concentration of 0.2% (w/v) DMSO; the control group received 0.2% DMSO in PBS (black bars). After 15 min, MK-801 (0.1 mg/kg) was injected; 15 min later, measurement of the PPI was performed.

Data set [5] concerns mice. Put plainly: Sedative effect (sedative score). Conditions: data not shown. On the procedure: Sedative effect was evaluated by observing the mice and scoring their sedative state as follows: 0, spontaneous movement; 1, mild intermittent spontaneous movement; 2, severe intermittent spontaneous movement; 3, no spontaneous movement; 4, loss of auditory reflex; 5, loss of corneal reflex; 6, loss of response to tail pinch.
Sedative effect was evaluated by observing the animal using a sedative score.

Data set [6] in a line: Plasma stability (HPLC, Cerep). In kind it is in vitro ADME. The note with it: 1 μM in human plasma. As for the experimental part: 1 μM Peptide 6 was dissolved in human plasma, and peptide concentration was analyzed by HPLC after 0, 0.5, 1, 1.5, 2 h of incubation. The assay was performed by Cerep, Inc (Redmond, Wash., U.S.A).
A further data set relates to C57Bl/6J naïve mice. The experiment in a line: Acoustic startle response / prepulse inhibition (PPI) in naïve mice. The class given is in vivo, mouse. Conditions: 30 min before test, prepulse 69, 73, 78 or 81 dB. As for the experimental part:
as §1, §2
To test Peptide 2 (SEQ ID NO: 10), the peptide was dissolved in DMSO and then diluted in PBS to a final concentration of 1% (w/v) DMSO. Male C57Bl/6J naïve mice were injected intraperitoneally with 15 μg of the peptide or with 1% DMSO in PBS (control). Prepulse intensity analysis was performed after 30 minutes at 69, 73, 78 or 81 decibels. […]

For the next data set, the system named is BDNF mRNA. The note with it: hippocampal slices (Arai et al., 2009); cited from earlier work.
Data set [7] relates to SCID mice that have impaired PPI response and several schizophrenia mouse models. Conditions: Kp-10 administration, WO 2010/137022; cited from earlier work.
A further data set deals with several mouse models. The note with it: Kp-10, WO 2010/137022; cited from earlier work.
The conditions of data set [8]: Kp-10, after 60 min (Chan et al., 2011); cited from earlier work.
The test system of a further data set is naïve mice. The note with it: Kp-10, WO 2010/137022 (FIG. 10C); dose equivalent to 0.29 mg/kg Peptide 6; cited from earlier work.
Setting [9] is: 13 μg/mouse, MK-801 0.1 mg/kg after 15 min, PPI 15 min later.

“Also recorded” adds a separate entry of the source. Bridge positions count the residues as written; N and C are the ends. Ends that are not written are not given here. Where only a bound is given, the exact number is not on record here.

Regarding `O=C(CCCN1CCC(O)(c2ccc(Cl)cc2)CC1)c1ccc(F)cc1` [Haloperidol], the catalepsy effect result with mice [1] (1 mg/kg i.p.) is given as “had catalepsy effects”. Moreover, the “spontaneous activity in the open field” value in the data set with mice [2] (1 mg/kg i.p.) is recorded as “reduced mice activity”. The “forced activity in the Rotarod” value in the data set with mice [3] (1 mg/kg i.p.) is listed as “reduced mice activity”.
`C[C@]12N[C@H](Cc3ccccc31)c1ccccc12` [MK-801]: the “PPI response compared to PBS injected control” value in data set [4] (MK-801 alone 0.1 mg/kg, 15 min before PPI) is listed as “the PPI response was reduced compared to the PBS injected control”.
As for `Cc1cc2c(s1)Nc1ccccc1N=C2N1CCN(C)CC1` [Olanzapine], the “highest dose that can be injected without causing sedative effects (chosen dose)” value with mice [5] turned out to be 0.375 mg/kg.
Regarding `CC(C)C[C@@H]1NC(=O)CNC(=O)[C@H](Cc2ccccc2)NC(=O)[C@@H](N)Cc2ccc(cc2)N=Nc2cc(ccc2O)C[C@@H](C(N)=O)NC(=O)[C@H](Cc2c[nH]c3ccccc23)NC(=O)[C@H](CCCNC(=N)N)NC1=O` [Peptide 6, Pap-Phe-Gly-Leu-Arg-Trp-Tyr-NH2], the “% Mean Compound Remaining” value is 100.0% in data set [6] (incubation time 0 minutes) and 94% in data set [6] (incubation time 60 minutes). Moreover, the share remaining at 0.5 h, 1 μM in [6] (incubation time 30 minutes, read-out: % Mean Compound Remaining) amounted to 119%. The amount remaining at 1 h, 1 μM in data set [6] (incubation time 60 minutes, read-out: % Mean Compound Remaining) is 93.7%. Moreover, the fraction remaining at 1.5 h, 1 μM in data set [6] (incubation time 90 minutes, read-out: % Mean Compound Remaining) amounted to 97.2%. For the same compound, in [6] (incubation time 120 minutes, read-out: % Mean Compound Remaining), the fraction remaining at 2 h, 1 μM came out at 71.8%. Further, the half-life (as a rule, the time needed for the level to fall by half in the phase considered) in [6] (read-out: calculated half-life) is greater than 120 min. In addition, the catalepsy effect result in the data set on mice [1] (0.29 and 2.9 mg/kg i.p.) was “did not have catalepsy effect at either dosage tested”. For the same compound, in the data set with mice [2] (0.29 and 2.9 mg/kg i.p.), the “spontaneous activity in the open field” value is “did not affect activity level”. Besides, the “forced activity in the Rotarod” value with mice [3] (0.29 and 2.9 mg/kg i.p.) is reported as “did not affect activity level”.
Take `Cc1nc2n(c(=O)c1CCN1CCC(c3noc4cc(F)ccc34)CC1)CCCC2` [Risperidone]: the “highest dose that can be injected without causing sedative effects (chosen dose)” value in the data set with mice [5] was 0.1 mg/kg. Also, in data set [4] (0.1 mg/kg i.p. with MK-801 (FIG. 4B)), the “PPI in MK-801 treated mice” value is listed as “elevated PPI in the MK-801 treated mice”.
As to “Peptide 2: cystine (S—S) cyclic modified Kp-10 derived peptide, used for comparison only (CYNWNSFGLRFC-NH2; disulfide 1-12; N-terminus assumed; SMILES CC(C)C[C@@H]1NC(=O)CNC(=O)[C@H](Cc2ccccc2)NC(=O)[C@H](CO)NC(=O)[C@H](CC(N)=O)NC(=O)[C@H](Cc2c[nH]c3ccccc23)NC(=O)[C@H](CC(N)=O)NC(=O)[C@H](Cc2ccc(O)cc2)NC(=O)[C@@H](N)CSSC[C@@H](C(N)=O)NC(=O)[C@H](Cc2ccccc2)NC(=O)[C@H](CCCNC(=N)N)NC1=O)”, the “% PPI relative to controls” value in the data set with C57Bl/6J naïve mice (15 μg peptide i.p. in 1% DMSO in PBS) is “slightly improved the % PPI relative to controls, however, the effect was not significant; also recorded: did not significantly improve the PPI response”.
With “Peptide 5: cystine (S—S) cyclic modified Kp-10 derived peptide, used for comparison only (CFGLRWC-NH2; disulfide 1-7; N-terminus assumed; SMILES CC(C)C[C@@H]1NC(=O)CNC(=O)[C@H](Cc2ccccc2)NC(=O)[C@@H](N)CSSC[C@@H](C(N)=O)NC(=O)[C@H](Cc2c[nH]c3ccccc23)NC(=O)[C@H](CCCNC(=N)N)NC1=O)”, the “% PPI relative to controls” value in the data set on C57Bl/6J naïve mice (8.3 μg peptide i.p. in 1% DMSO in PBS) was “slightly improved the % PPI at 73, 78 and 81 decibels relative to controls, however, the effect was not significant; also recorded: did not significantly improve the PPI response”.
For YNWNSFGLRF-NH2 [Kp-10], the “BDNF mRNA levels” value with BDNF mRNA is given as “elevate BDNF mRNA levels”. The PPI response levels entry in data set [7] is on record as “improved PPI response levels”. Besides, the “spatial learning and memory in a water maze” value with several mouse models is “improves spatial learning and memory in a water maze”. For the same compound, the “level after 60 min” value in data set [8] was “below detectable level”. Besides, the “antidepressant effect / total immobility in tail suspension test” value in the data set with naïve mice is reported as “antidepressant effect; also recorded: potential anti-depressive activity; also recorded: reduced the total immobility”. Further, in data set [4] (setting [9]), the “PPI compared to MK-801 treated animals” value is reported as “significantly improved PPI compared to the MK-801 treated animals; also recorded: significantly improved PPI compared to animals treated only with MK-801” and the “PPI compared to control without MK-801 (restoration to normal)” value was “improved PPI after MK-801 administration but did not abolish its affect”.

Source of the values: patent US10072044B2, “Modified kisspeptin peptides and uses thereof” (Yeda Research and Development Co. Ltd., priority 2012, dated 2018).
